Data published in US20150344457A1, “METHODS OF INHIBITING PRMT5” (EPIZYME, INC., priority 2012, published 2015).

What was measured:
[1] = biological target: T1, PRMT5/MEP50 (Homo sapiens, UniProt O14744); test: PRMT5 Biochemical Assay (PRMT5/MEP50 enzyme assay on peptide substrate, 3H-SAM Flashplate); conditions: Table D-2; read-out: Biochemical IC50
T1 construct: Expressed full-length human Flag-PRMT5/6His-MeP50 protein complex was purified; made in house; host or cells: Spodoptera frugiperda (SF9) insect cells, baculovirus (pDEST8)

[2] = system: Z-138 cells; test: Z-138 Proliferation Assay (Cell Titer Glo, 5 days); assay type: cell-based; conditions: Homo sapiens, Table D-2
Procedure, shortened: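 Exponentially growing Z-138 cells (10,000 cells/ml) in RPMI 1640 with 10% FBS are exposed to nine-point 3-fold dilutions (final top concentration 20 μM, 0.2% DMSO) for 5 days at 37° C. Viability is measured as ATP by CellTiter-Glo luminescence. The 50% inhibitory concentration comes from a 4-parameter fit.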

T1 sequence (O14744 with tags, fused parts or gaps): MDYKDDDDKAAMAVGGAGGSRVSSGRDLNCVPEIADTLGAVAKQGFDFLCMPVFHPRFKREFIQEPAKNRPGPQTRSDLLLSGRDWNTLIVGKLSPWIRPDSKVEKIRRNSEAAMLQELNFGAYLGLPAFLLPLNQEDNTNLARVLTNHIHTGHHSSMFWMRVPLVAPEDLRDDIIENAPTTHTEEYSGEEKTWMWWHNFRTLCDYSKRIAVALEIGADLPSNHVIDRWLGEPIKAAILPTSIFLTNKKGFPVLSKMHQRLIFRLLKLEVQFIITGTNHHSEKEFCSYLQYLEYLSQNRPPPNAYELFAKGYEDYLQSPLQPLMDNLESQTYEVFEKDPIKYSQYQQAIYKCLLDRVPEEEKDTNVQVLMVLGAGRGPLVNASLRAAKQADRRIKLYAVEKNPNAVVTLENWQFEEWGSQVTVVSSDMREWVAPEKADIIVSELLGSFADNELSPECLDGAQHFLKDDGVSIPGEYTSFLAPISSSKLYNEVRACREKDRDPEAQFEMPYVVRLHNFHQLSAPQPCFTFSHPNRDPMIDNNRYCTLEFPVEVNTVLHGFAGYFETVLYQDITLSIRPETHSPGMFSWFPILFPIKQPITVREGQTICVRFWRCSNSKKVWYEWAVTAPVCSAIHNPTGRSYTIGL
T1 sequence (Q9BQA1 with tags, fused parts or gaps partner limits assumed): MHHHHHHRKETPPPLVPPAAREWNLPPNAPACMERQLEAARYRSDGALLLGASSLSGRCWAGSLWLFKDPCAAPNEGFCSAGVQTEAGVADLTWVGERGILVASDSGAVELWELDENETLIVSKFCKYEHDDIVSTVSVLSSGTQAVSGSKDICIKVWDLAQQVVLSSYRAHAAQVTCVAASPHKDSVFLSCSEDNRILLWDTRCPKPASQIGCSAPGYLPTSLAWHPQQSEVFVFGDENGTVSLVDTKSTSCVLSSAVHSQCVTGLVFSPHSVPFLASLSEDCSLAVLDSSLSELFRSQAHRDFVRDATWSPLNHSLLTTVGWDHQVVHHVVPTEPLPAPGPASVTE

| Compound | IC50 [1] | EC50 [2] |
| --- | --- | --- |
| N#Cc1ccccc1-c1cccc(OCC(O)CN2CCc3ccccc3C2)c1 (stereo not drawn) [Compound D93] | 0.101 to 1 µM | 10 to 40 µM |
| N#Cc1ccc(-c2cccc(OCC(O)CN3CCc4ccccc4C3)c2)cc1 (stereo not drawn) [Compound D94] | 0.101 to 1 µM | 10 to 40 µM |
| Oc1cccc(-c2cccc(OCC(O)CN3CCc4ccccc4C3)c2)c1 (stereo not drawn) [Compound D95] | 0.101 to 1 µM | 10 to 40 µM |
